The target of one data set is Nonstructural protein 1 (Influenza A virus, UniProt Q194T2). It counts as functional, Influenza A virus (A/California/07/2009(H1N1)).
The target in the next data set is Cytochrome P450 2C19 (Homo sapiens, UniProt P33261). Briefly: Cytochrome panel assay with activity outcomes. Panel member name: p450-cyp2c19 Compounds with AC50 equal or less than 10 uM are considered active. Format: functional.
Data set [1] has as its target T1, Replicative DNA helicase DnaB (Mycobacterium tuberculosis, UniProt P9WMR3).
T1 sequence (P9WMR3 whole entry): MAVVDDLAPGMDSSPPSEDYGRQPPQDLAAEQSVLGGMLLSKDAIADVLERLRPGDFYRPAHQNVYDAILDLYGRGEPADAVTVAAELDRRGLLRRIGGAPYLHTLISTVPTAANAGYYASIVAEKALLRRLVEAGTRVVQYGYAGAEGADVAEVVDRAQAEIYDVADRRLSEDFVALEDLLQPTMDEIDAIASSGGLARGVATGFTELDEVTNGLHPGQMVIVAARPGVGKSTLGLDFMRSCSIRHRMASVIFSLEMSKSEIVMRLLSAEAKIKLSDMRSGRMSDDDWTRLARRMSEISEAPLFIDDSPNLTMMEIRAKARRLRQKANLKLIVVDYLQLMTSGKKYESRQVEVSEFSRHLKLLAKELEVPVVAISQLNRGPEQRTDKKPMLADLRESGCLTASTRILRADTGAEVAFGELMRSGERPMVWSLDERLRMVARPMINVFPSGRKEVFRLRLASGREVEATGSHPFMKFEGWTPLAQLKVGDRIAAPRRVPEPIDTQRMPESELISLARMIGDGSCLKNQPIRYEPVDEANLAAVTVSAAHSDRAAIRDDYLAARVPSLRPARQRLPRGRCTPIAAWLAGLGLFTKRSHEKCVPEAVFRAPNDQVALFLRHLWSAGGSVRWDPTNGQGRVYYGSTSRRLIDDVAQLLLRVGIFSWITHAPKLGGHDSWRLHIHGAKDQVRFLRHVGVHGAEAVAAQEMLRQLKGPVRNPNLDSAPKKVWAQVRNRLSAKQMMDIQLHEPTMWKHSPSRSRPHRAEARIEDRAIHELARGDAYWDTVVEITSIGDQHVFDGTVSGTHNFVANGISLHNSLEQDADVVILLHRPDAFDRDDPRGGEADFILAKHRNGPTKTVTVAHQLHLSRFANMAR
Briefly: DnaB intein splicing inhibitors, dose response, biochemical, cell-free fluorescence (AID 449749). It counts as functional.

The target of a further data set is T2, Protein RecA (Mycobacterium tuberculosis, UniProt P9WHJ3).
T2 sequence (P9WHJ3 whole entry): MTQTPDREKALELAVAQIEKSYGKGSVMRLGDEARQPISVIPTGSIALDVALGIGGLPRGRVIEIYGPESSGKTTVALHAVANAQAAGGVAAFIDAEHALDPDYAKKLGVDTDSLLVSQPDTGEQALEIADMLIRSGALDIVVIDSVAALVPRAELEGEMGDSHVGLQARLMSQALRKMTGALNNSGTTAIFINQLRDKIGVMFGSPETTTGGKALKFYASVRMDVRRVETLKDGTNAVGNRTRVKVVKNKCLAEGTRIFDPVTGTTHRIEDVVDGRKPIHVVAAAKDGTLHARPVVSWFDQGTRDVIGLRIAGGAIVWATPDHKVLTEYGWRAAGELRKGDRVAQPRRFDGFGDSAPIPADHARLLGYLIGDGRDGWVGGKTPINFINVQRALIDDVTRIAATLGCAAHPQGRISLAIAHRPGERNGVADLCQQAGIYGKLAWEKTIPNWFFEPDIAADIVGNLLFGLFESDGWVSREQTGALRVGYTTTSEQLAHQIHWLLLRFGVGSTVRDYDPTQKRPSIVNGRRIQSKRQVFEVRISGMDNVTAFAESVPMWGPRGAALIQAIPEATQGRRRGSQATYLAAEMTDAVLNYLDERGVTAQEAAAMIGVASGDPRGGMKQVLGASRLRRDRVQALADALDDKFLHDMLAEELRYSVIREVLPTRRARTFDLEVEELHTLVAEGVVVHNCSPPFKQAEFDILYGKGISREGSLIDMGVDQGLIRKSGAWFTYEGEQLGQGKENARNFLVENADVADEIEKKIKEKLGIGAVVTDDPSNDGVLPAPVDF
Briefly: Fluorescence Cell-Free Homogeneous Dose Retest to Identify Inhibitors of RecA-Intein Splicing Activity. [Related pubchem assays (depositor defined):AID2097, AID2223, AID489010, AID492950]. It counts as functional.

A further data set has as its system MDCK. As to the kind of experiment: antiviral activity against H1N1 influenza, dose response, cell-based, strain KY136 (AID 540257). Conditions: Canis lupus familiaris. Format: functional.
Another data set has as its target T3, Cytochrome P450 1A2 (Homo sapiens, UniProt P05177).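 Further: PubChem cytochrome P450 panel assay, CYP1A2 panel member.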
T3 sequence (P05177 whole entry): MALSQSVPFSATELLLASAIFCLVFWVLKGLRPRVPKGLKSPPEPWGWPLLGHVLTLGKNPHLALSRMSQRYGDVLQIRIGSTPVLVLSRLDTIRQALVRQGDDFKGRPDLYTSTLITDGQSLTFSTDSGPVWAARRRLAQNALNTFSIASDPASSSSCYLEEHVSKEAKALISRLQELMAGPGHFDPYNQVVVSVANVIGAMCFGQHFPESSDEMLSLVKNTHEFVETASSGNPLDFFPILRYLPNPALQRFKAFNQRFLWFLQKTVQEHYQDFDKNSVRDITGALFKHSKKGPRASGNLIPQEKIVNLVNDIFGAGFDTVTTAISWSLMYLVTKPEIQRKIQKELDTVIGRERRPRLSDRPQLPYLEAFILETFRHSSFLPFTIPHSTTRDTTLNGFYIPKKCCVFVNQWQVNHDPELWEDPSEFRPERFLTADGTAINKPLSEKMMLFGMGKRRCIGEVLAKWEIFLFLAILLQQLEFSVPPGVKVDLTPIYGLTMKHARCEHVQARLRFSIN

Another data set addresses Cytochrome P450 2C9 (Homo sapiens, UniProt P11712).
The nature of data set [2]: growth induction of Burl-1 ts yeast mutant, dose response, counter-screen for SUMOylation pathway inhibitor project, whole organism, S. cerevisiae, luminescence (AID 463199). It counts as functional.
Data set [3] has as its target E3 ubiquitin-protein ligase Mdm2 (Homo sapiens, UniProt Q00987). As to the kind of experiment: enhancers of MDM2-luciferase reporter signal, concentration-effect titration, project on inhibitors of MDM2 ubiquitin ligase, cellular assay, luminescent readout, 384-well plate format (AID 1394).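 Further: MDM2 E3 inhibitors raise luminescence so EC50 is for signal enhancement.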 It counts as functional. (In general: A reporter such as luciferase makes a cellular process visible.)

Data set [4] is described as follows: Luminescence Cell-Based Dose Retest to Confirm Inhibitors of Cancer Stem Cells. [Related pubchem assays (depositor defined):AID2717, AID2721]. The note with it: Homo sapiens. It counts as functional.
Data set [5] is described as follows: cytotoxicity in HMLE control line with eGFP shRNA, dose response, counter-screen for HMLE_sh_ECad selective toxicity project, cell-based, HMLE_sh_eGFP, luminescence (AID 463074).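 Further: HMLE human mammary epithelial cells expressing control shRNA against eGFP.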 It counts as functional, Homo sapiens. (Counterscreens check selectivity or assay interference.)
A short description of data set [6]: HepG2 cell cytotoxicity, dose response, cytotoxicity control for Shn3 inhibitor project, CellTiter-Glo, cherry-picked (AID 624134). Format: functional, cell-based.
Data set [7] is described as follows: control 3'UTR Renilla luciferase suppression, dose response, counter-screen for Shn3 inhibitor project, cell-based, Clone20-Shn3RL, cherry-picked (AID 624133). It counts as functional.
The nature of data set [8]: Late-stage probe development counterscreen for inhibitors of the Hepatitis C Virus non-structural protein 3 helicase (NS3): luminescence-based cell-based dose response assay to determine whether compounds that inhibit replication of HCV RNA replicon are cytotoxic. [Related pubchem assays (depositor defined):AID1800, AID1830, AID1845, AID1943, AID1945, AID2172, AID2173, AID2474, AID2476]. Format: functional.

The subject of data set [9] is HEK293. As to the kind of experiment: NOD1 signaling inhibitors, primary screen, cell-based, luminescence, uHTS (AID 1578). Format: functional. Conditions: Homo sapiens.
Data set [10] deals with HEK293. As to the kind of experiment: cells. It counts as functional, cell-based. Conditions: Homo sapiens.
Data set [11] addresses T4, Voltage-gated N-type calcium channel alpha-1B subunit/Amyloid beta A4 precursor protein-binding family A member 1 (Homo sapiens, UniProt Q00975+Q02410). Format: protein assay.
The subject of data set [12] is HEK293. Briefly: cells. It counts as functional, cell-based. Conditions: Homo sapiens. This is another data set of the same source.
Data set [13] addresses Nucleotide-binding oligomerization domain-containing protein 2 (Homo sapiens, UniProt Q9HC29). Briefly: NOD2 signaling inhibitors, cell-based, luminescence, uHTS, HEK293 (AID 1566). It counts as functional.
For data set [14], the system named is HEK293. As to the kind of experiment: NOD2 signaling inhibitors in MDP-stimulated cells, cell-based, uHTS, luminescence (AID 2001). It counts as functional. Conditions: Homo sapiens.
In data set [15] the target is T4, Voltage-gated N-type calcium channel alpha-1B subunit/Amyloid beta A4 precursor protein-binding family A member 1. It counts as protein assay. This is another data set of the same source.
For data set [16], the system named is HEK293. As to the kind of experiment: cells. Format: functional, cell-based. Conditions: Homo sapiens. The source holds these as a separate data set.
Data set [17] has as its target T5, Apoptotic protease-activating factor 1 (Homo sapiens, UniProt O14727).
T5 sequence (O14727 whole entry): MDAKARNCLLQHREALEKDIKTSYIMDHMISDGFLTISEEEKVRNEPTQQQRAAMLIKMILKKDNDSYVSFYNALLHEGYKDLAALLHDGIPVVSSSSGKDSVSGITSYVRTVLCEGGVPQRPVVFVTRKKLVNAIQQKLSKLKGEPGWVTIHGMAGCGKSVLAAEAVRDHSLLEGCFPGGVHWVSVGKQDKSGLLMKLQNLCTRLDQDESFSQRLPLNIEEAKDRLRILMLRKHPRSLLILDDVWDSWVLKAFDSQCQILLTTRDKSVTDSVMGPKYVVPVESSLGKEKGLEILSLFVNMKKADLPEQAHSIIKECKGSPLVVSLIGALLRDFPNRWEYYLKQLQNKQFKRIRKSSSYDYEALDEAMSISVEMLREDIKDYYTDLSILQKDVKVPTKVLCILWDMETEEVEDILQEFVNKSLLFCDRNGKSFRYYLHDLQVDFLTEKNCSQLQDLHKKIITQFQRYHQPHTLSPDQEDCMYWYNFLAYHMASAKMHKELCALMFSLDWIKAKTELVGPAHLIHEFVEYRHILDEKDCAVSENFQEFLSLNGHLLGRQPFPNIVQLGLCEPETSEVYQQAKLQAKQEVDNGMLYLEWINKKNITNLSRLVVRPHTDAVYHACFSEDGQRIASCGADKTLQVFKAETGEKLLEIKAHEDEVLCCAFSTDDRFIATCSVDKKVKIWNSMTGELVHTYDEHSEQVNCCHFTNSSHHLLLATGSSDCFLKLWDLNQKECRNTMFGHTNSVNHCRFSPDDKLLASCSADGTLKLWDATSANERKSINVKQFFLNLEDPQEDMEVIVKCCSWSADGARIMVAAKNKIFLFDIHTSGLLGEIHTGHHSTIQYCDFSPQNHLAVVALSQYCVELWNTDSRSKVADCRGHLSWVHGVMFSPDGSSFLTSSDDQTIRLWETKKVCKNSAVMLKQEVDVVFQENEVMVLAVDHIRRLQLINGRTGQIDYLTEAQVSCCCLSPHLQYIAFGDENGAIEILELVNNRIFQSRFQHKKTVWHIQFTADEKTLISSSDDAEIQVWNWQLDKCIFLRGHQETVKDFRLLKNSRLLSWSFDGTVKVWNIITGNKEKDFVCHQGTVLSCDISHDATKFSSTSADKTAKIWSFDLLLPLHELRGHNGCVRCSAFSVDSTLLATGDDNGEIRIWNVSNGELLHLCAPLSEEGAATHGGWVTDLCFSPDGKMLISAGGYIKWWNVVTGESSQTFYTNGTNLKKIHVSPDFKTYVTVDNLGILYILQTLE
Format: functional.

In data set [18] the target is Dual specificity protein phosphatase 3 (Homo sapiens, UniProt P51452). As to the kind of experiment: SAR VHR1 Fluorescent Assay for In Vitro dose response studies Set 3. [Related pubchem assays (depositor defined):AID1654, AID1661, AID1878]. It counts as functional.

Structures are written as SMILES. Activity calls are given as the source filed them.

Cytochrome P450 2C19, sequence (P33261 whole entry): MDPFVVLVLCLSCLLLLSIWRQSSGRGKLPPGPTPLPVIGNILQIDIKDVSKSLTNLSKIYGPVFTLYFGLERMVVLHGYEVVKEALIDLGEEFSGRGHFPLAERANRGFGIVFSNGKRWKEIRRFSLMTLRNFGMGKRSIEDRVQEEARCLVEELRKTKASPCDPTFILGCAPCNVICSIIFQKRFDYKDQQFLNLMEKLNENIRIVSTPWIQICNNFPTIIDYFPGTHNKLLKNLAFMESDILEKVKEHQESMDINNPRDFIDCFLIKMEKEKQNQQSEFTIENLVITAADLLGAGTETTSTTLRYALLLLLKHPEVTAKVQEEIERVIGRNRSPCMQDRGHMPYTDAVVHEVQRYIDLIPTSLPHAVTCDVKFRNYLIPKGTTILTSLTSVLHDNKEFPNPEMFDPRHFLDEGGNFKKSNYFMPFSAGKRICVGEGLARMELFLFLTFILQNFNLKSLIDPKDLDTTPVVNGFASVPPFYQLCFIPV
T4 sequence (Q00975 whole entry): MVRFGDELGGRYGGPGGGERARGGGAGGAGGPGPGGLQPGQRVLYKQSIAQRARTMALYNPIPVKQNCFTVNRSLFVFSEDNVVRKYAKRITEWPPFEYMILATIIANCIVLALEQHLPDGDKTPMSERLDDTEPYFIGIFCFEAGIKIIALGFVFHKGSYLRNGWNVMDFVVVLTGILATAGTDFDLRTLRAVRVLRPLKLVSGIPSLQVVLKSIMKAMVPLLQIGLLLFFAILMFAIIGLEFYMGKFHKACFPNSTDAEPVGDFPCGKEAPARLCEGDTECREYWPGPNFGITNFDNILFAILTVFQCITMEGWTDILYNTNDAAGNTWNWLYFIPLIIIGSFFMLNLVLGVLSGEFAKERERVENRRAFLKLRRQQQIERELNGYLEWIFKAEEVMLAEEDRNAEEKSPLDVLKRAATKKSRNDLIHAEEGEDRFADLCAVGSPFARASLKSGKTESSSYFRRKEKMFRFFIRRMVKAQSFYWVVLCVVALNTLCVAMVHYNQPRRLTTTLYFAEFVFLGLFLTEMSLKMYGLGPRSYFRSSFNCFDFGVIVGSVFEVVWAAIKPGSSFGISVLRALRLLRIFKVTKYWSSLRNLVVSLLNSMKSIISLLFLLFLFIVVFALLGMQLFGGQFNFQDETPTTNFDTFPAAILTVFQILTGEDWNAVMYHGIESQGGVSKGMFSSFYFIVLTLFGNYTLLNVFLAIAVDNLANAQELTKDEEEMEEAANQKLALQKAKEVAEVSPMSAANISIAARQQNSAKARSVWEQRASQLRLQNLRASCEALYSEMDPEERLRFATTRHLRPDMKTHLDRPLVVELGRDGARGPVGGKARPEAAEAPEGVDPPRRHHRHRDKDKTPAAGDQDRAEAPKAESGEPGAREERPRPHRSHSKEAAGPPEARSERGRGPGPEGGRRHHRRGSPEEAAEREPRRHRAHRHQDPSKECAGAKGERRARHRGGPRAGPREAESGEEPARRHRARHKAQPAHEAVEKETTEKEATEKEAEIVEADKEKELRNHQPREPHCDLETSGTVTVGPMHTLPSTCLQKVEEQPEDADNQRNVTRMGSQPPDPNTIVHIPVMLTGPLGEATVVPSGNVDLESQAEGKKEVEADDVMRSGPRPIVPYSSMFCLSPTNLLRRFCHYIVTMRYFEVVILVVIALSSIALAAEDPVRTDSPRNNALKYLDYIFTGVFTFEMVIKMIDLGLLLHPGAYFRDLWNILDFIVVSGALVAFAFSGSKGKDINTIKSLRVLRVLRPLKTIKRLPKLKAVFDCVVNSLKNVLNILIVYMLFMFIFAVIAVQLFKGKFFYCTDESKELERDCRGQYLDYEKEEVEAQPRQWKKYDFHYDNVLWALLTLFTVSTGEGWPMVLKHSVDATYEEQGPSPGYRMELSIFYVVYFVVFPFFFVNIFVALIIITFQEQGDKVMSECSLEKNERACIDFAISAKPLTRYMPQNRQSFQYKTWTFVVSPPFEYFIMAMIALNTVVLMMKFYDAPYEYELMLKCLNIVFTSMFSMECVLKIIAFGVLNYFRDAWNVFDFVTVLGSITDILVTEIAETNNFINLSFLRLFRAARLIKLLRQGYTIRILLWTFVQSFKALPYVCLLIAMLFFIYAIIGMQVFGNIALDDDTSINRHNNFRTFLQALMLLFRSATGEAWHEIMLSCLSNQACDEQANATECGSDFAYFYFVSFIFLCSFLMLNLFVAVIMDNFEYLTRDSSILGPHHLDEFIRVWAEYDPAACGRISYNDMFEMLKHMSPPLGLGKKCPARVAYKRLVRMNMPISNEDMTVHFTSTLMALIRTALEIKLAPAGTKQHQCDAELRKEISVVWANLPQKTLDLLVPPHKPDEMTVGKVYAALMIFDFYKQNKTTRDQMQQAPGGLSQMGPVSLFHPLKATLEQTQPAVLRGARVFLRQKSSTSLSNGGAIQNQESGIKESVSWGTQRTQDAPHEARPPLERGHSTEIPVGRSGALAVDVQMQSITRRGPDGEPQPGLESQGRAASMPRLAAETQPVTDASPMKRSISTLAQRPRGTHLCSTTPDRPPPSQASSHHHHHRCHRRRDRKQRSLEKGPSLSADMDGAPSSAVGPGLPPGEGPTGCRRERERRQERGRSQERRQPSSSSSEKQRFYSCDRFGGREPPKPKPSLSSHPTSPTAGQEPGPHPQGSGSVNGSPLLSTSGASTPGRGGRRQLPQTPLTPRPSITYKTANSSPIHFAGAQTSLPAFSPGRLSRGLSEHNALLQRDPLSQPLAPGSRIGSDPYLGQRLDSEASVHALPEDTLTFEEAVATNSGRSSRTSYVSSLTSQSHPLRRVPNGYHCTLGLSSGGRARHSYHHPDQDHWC
T4 sequence (Q02410 whole entry): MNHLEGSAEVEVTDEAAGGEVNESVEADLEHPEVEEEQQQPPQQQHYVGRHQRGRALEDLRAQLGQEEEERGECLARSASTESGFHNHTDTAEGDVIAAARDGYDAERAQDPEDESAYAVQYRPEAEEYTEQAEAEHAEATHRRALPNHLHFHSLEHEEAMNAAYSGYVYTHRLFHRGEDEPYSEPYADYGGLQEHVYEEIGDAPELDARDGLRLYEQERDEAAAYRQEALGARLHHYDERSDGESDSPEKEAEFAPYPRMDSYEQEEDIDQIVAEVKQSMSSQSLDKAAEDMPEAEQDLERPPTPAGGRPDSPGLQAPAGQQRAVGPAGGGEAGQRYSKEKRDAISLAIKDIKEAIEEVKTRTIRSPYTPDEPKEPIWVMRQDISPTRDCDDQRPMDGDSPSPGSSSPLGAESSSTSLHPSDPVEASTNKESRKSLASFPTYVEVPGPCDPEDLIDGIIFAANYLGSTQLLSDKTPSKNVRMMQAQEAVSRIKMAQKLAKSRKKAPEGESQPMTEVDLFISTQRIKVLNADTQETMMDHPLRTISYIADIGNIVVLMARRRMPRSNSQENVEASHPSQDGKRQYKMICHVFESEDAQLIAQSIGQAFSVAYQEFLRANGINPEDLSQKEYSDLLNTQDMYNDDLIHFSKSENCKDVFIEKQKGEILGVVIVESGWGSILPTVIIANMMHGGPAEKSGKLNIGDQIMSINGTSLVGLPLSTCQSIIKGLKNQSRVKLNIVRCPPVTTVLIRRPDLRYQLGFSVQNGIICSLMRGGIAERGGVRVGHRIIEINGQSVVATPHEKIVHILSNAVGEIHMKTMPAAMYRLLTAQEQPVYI
Nucleotide-binding oligomerization domain-containing protein 2, sequence (Q9HC29 whole entry, the tested form may be a part): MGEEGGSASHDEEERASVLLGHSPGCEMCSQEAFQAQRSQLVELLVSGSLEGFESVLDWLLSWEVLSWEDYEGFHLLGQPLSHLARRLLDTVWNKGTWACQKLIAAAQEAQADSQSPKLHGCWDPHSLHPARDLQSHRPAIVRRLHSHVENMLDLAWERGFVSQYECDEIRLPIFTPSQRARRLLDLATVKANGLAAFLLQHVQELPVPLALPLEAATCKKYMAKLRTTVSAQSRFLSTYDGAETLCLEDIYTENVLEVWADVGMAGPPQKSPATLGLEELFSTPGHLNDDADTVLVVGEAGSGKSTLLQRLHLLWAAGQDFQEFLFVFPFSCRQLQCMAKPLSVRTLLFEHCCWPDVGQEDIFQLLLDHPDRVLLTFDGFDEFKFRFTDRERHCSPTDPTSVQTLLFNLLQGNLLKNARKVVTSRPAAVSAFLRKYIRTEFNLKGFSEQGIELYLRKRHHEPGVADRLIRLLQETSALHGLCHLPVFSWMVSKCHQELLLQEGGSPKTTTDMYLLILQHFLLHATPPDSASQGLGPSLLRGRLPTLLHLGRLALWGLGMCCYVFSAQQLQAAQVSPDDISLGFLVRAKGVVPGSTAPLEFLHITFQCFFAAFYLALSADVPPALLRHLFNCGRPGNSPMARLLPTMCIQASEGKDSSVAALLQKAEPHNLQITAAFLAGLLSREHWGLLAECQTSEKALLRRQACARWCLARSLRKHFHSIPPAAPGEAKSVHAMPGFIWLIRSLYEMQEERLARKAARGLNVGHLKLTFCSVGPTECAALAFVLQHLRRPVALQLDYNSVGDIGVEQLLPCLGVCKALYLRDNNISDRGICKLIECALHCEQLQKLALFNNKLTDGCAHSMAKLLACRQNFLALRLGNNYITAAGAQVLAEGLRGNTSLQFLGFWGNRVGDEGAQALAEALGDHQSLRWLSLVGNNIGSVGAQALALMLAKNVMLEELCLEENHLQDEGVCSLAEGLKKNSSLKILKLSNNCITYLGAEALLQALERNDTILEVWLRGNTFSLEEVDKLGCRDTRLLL
Nonstructural protein 1, sequence (Q194T2 whole entry): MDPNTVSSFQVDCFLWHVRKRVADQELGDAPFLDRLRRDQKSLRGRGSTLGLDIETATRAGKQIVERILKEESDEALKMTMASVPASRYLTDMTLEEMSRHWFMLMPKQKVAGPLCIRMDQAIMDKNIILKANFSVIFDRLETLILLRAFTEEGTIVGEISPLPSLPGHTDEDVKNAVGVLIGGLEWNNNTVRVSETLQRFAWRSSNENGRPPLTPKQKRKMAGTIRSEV

A word on the IC50: it is the concentration at which inhibition is half-maximal. One may read the AC50 as the midpoint of the concentration-response curve, whichever way the signal moves. One may read the EC50 as the concentration at which the effect is half-maximal. For `CC1(C)c2ssc(=S)c2-c2ccccc2N1C(=O)CSC1=NCCS1`, the values for the IC50 on Nonstructural protein 1 and with MDCK were 27.7 µM (active) and > 100 µM (active), respectively. In addition, the AC50 was 0.891 µM (inconclusive) on Cytochrome P450 2C19 (read-out: AC50), 5.8 µM (active) in [1], 2 µM (inconclusive) on Cytochrome P450 1A2 and 2.82 µM (inconclusive) at Cytochrome P450 2C9. Also, the EC50 on Protein RecA was 4.27 µM (active).
Regarding `Oc1nncc(-c2ccccc2)n1`, the AC50 entry was “inconclusive” at Cytochrome P450 2C19, 58.5 µM (active) in [2] and 14.1 µM (inconclusive) at Cytochrome P450 1A2.
Turning to `O=C1N/C(=C/c2ccc(N3CCOCC3)o2)C(=O)N1c1ccccc1`, in [3], the EC50 is listed as 6.73 µM (not active). Also, the AC50 in data set [4] was > 195 µM (inactive); in data set [5] it was 45.7 µM (active); in data set [6], > 70 µM (inactive); in data set [7], 5.03 µM (active).
A word on the CC50: it is the concentration that lowers cell viability or growth by half. `COc1ccc(C=NNC(=O)c2cc(O)c(O)c(O)c2)cc1COc1ccc(C(=O)OCC(C)C)cc1`: the CC50 in data set [8] is > 100 µM (inactive).
Take `CCCCCCc1cc2cc(-c3nnc(-c4ccccc4OC)o3)c(=O)oc2cc1O`: the EC50 with HEK293 [9] was 6.54 µM (active); in [13], > 20 µM (inactive). Further, the IC50 in the data set on HEK293 [10] was 9.41 µM (active); in [11], > 56.8 µM (not active); with HEK293 [12], > 20 µM (inactive); in the data set with HEK293 [14] it was 8.48 µM (active); in data set [15] it was > 50 µM (inactive); with HEK293 [16], > 20 µM (inactive). In addition, the half-inhibitory concentration (IC50) in data set [17] was 15.9 µM (active).
Take `Cn1c(SCC(=O)Nc2ccc3nc(SCC(=O)c4ccc(Cl)cc4)sc3c2)nnc1-c1ccc(N)cc1`: the IC50 in [18] is 40.6 µM (active).

The values are drawn from ChEMBL document CHEMBL1201862, “PubChem BioAssay data set” (2004).
